Among the data in patent US20240269298A1, “PHOSPHONYL DERIVATIVE, AND COMPOSITION AND PHARMACEUTICAL APPLICATION THEREOF” (XIZANG HAISCO PHARMACEUTICAL CO., LTD., priority 2021, published 2024) are IC50 values, retold here.

For assay [1], the system named is A431 (EGFR-WT) cells. As to the kind of experiment: Inhibitory activity on proliferation of A431 (EGFR-WT) cells (CTG, 72 h). It counts as cell-based. The settings on record: Homo sapiens, A-431. A digest of the protocol: (§1)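 IC50 values come from S-shaped dose-survival fits of CTG signal expressed as % of vehicle. Compound exposure lasted 72 h at 37 °C with 0.1% DMSO; seeding was 3000 A431 cells/well in DMEM+10% FBS and 1000 NCI-H1975 cells/well in RPMI1640+10% FBS.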

The subject of assay [2] is NCI-H1975 (EGFR-L858R-T790M) cells. As to the kind of experiment: Inhibitory activity on proliferation of NCI-H1975 (EGFR-L858R-T790M) cells (CTG, 72 h). Format: cell-based. The settings on record: Homo sapiens. A digest of the protocol: as §1
Where [3] appears, read: read-out: IC50 (value in brackets).

Read-outs that look alike come from different tables or passages of the source.

As for `COc1cc(N2CCC(F)(CN3CCN(c4ccc5c(c4)C(=O)N(C4CCC(=O)NC4=O)C5=O)CC3)CC2)c(-c2cnn(C)c2)cc1Nc1ncc(Br)c(Nc2ccc(C3CC3)cc2P(C)(C)=O)n1` (stereo not drawn) [Compound 147, 5-(4-((1-(4-((5-bromo-4-((4-cyclopropyl-2-(dimethylphosphoryl)phenyl)amino)pyrimidin-2-yl)amino)-5-methoxy-2-(1-methyl-1H-pyrazol-4-yl)phenyl)-4-fluoropiperidin-4-yl)methyl)piperazin-1-yl)-2-(2,6-dioxopiperidin-3-yl)isoindoline-1,3-dione], the IC50 is at least 10000 nM in assay [1], 100 to 500 nM in assay [2] (read-out: IC50 (class symbol)) and 103 nM in assay [2] (setting [3]).
As to `COc1cc(N2CCN(C3CN(c4ccc5c(c4)C(=O)N(C4CCC(=O)NC4=O)C5=O)C3)CC2)c(-c2cnn(C)c2)cc1Nc1ncc(Cl)c(Nc2ccc(C3CC3)cc2P(C)(C)=O)n1` (stereo not drawn) [Compound 148, 5-(3-(4-(4-((5-chloro-4-((4-cyclopropyl-2-(dimethylphosphoryl)phenyl)amino)pyrimidin-2-yl)amino)-5-methoxy-2-(1-methyl-1H-pyrazol-4-yl)phenyl)piperazin-1-yl)azetidin-1-yl)-2-(2,6-dioxopiperidin-3-yl)isoindoline-1,3-dione], the IC50 in assay [1] was at least 10000 nM; in assay [2] (read-out: IC50 (class symbol)) it was under 100 nM; in assay [2] (setting [3]), 79 nM.
The matching figures for `COc1cc(N2CCN(C3CN(c4ccc5c(c4)C(=O)N(C4CCC(=O)NC4=O)C5=O)C3)CC2)c(-c2cnn(C)c2)cc1Nc1ncc(Br)c(Nc2ccc(C3CC3)cc2P(C)(C)=O)n1` (stereo not drawn) [Compound 150, 5-(3-(4-(4-((5-bromo-4-((4-cyclopropyl-2-(dimethylphosphoryl)phenyl)amino)pyrimidin-2-yl)amino)-5-methoxy-2-(1-methyl-1H-pyrazol-4-yl)phenyl)piperazin-1-yl)azetidin-1-yl)-2-(2,6-dioxopiperidin-3-yl)isoindoline-1,3-dione]: at least 10000 nM, under 100 nM and 40 nM.
On to `COc1cc(N2CCC(CN3CCN(c4cc5c(cc4F)C(=O)N(C4CCC(=O)NC4=O)C5=O)CC3)CC2)c(-c2cnn(C)c2)cc1Nc1ncc(Cl)c(Nc2ccc(C3CC3)cc2P(C)(C)=O)n1` (stereo not drawn) [Compound 160, 5-(4-((1-(4-((5-chloro-4-((4-cyclopropyl-2-(dimethylphosphoryl)phenyl)amino)pyrimidin-2-yl)amino)-5-methoxy-2-(1-methyl-1H-pyrazol-4-yl)phenyl)piperidin-4-yl)methyl)piperazin-1-yl)-2-(2,6-dioxopiperidin-3-yl)-6-fluoroisoindoline-1,3-dione], for which the values for the IC50 in assay [1], in assay [2] (read-out: IC50 (class symbol)) and in assay [2] (setting [3]) were at least 10000 nM, 100 to 500 nM and 152 nM, respectively.
For `COc1cc(N2CCC3(CCN(c4ccc5c(c4)C(=O)N(C4CCC(=O)NC4=O)C5=O)CC3)CC2)c(-c2cnn(C)c2)cc1Nc1ncc(Cl)c(Nc2ccc(F)cc2P(C)(C)=O)n1` (stereo not drawn) [Compound 162, 5-(9-(4-((5-chloro-4-((2-(dimethylphosphoryl)-4-fluorophenyl)amino)pyrimidin-2-yl)amino)-5-methoxy-2-(1-methyl-1H-pyrazol-4-yl)phenyl)-3,9-diazaspiro[5.5]undecan-3-yl)-2-(2,6-dioxopiperidin-3-yl)isoindoline-1,3-dione], the IC50 in assay [1] is at least 10000 nM; in assay [2] (read-out: IC50 (class symbol)), 100 to 500 nM; in assay [2] (setting [3]), 134 nM.
The matching figures for `COc1cc(N2CCC3(CCN(c4ccc5c(c4)C(=O)N(C4CCC(=O)NC4=O)C5=O)CC3)CC2)c(-c2cnn(C)c2)cc1Nc1ncc(Br)c(Nc2ccccc2P(C)(C)=O)n1` (stereo not drawn) [Compound 164, 5-(9-(4-((5-bromo-4-((2-(dimethylphosphoryl)phenyl)amino)pyrimidin-2-yl)amino)-5-methoxy-2-(1-methyl-1H-pyrazol-4-yl)phenyl)-3,9-diazaspiro[5.5]undecan-3-yl)-2-(2,6-dioxopiperidin-3-yl)isoindoline-1,3-dione]: at least 10000 nM, 100 to 500 nM and 109 nM.
On to `COc1cc(N2CCN(c3ccc4c(c3)C(=O)N(C3CCC(=O)NC3=O)C4=O)CC2)c(-c2cnn(C)c2)cc1Nc1ncc(Br)c(Nc2ccc(C3CC3)cc2P(C)(C)=O)n1` (stereo not drawn) [Compound 166, 5-(4-(4-((5-bromo-4-((4-cyclopropyl-2-(dimethylphosphoryl)phenyl)amino)pyrimidin-2-yl)amino)-5-methoxy-2-(1-methyl-1H-pyrazol-4-yl)phenyl)piperazin-1-yl)-2-(2,6-dioxopiperidin-3-yl)isoindoline-1,3-dione], for which the IC50 in assay [1] is at least 10000 nM; in assay [2] (read-out: IC50 (class symbol)) it was 100 to 500 nM; in assay [2] (setting [3]), 115 nM.
The matching figures for `COc1cc(N2CCC(CN3CCN(c4ccc5c(c4)C(=O)N([C@H]4CCC(=O)NC4=O)C5=O)CC3)CC2)c(-c2cnn(C)c2)cc1Nc1ncc(Br)c(Nc2ccc(C3CC3)cc2P(C)(C)=O)n1` [Compound 170]: at least 10000 nM, under 100 nM and 47 nM.
For `COc1cc(N2CCC(CN3CCN(c4ccc5c(c4)C(=O)N([C@@H]4CCC(=O)NC4=O)C5=O)CC3)CC2)c(-c2cnn(C)c2)cc1Nc1ncc(Br)c(Nc2ccc(C3CC3)cc2P(C)(C)=O)n1` [Compound 171], in that order: at least 10000 nM, under 100 nM and 77 nM.
With `COc1cc(N2CCC(CN3CCN(c4ccc5c(c4)C(=O)N([C@H]4CCC(=O)NC4=O)C5=O)CC3)CC2)c(-c2cnn(C)c2)cc1Nc1ncc(Cl)c(Nc2ccc(C3CC3)cc2P(C)(C)=O)n1` [Compound 172], the IC50 in assay [1] is at least 10000 nM; in assay [2] (read-out: IC50 (class symbol)), under 100 nM; in assay [2] (setting [3]), 49 nM.
As to `COc1cc(N2CCC(C3CCN(C4CC5(CCN(c6ccc7c(c6)C(=O)N(C6CCC(=O)NC6=O)C7=O)CC5)C4)CC3)CC2)c(-c2cnn(C)c2)cc1Nc1ncc(Cl)c(Nc2ccc3nccnc3c2P(C)(C)=O)n1` (stereo not drawn) [Trifluoroacetate of compound 14, 5-(2-(1′-(4-((5-chloro-4-((5-(dimethylphosphoryl)quinoxalin-6-yl)amino)pyrimidin-2-yl)amino)-5-methoxy-2-(1-methyl-1H-pyrazol-4-yl)phenyl)-[4,4′-bipiperidin]-1-yl)-7-azaspiro[3.5]nonan-7-yl)-2-(2,6-dioxopiperidin-3-yl)isoindoline-1,3-dione], the IC50 was at least 10000 nM in assay [1], under 100 nM in assay [2] (read-out: IC50 (class symbol)) and 49 nM in assay [2] (setting [3]).
The matching figures for `COc1cc(N2CCC(N3CCN(CC4(F)CCN(c5ccc6c(c5)C(=O)N(C5CCC(=O)NC5=O)C6=O)CC4)CC3)CC2)c(-c2cnn(C)c2)cc1Nc1ncc(Br)c(Nc2ccc(-c3ccccc3)cc2P(C)(C)=O)n1` (stereo not drawn) [Trifluoroacetate of compound 86, 5-(4-((4-(1-(4-((5-bromo-4-((3-(dimethylphosphoryl)-[1,1′-biphenyl]-4-yl)amino)pyrimidin-2-yl)amino)-5-methoxy-2-(1-methyl-1H-pyrazol-4-yl)phenyl)piperidin-4-yl)piperazin-1-yl)methyl)-4-fluoropiperidin-1-yl)-2-(2,6-dioxopiperidin-3-yl)isoindoline-1,3-dione]: at least 10000 nM, under 100 nM and 77 nM.
